Reference: patent EP2114888B1, “TRICYCLIC COMPOUNDS AND THEIR USE AS GLUCOCORTICOID RECEPTOR MODULATORS” (priority 2007, dated 2008)

Key:
[1] = system: IL-1β; test: Ex vivo LPS-stimulated human whole blood, IL-1β production; assay type: cell-based; details: one donor
Description: (§1) Venous blood from human donors was collected as 10 ml aliquots in tubes containing sodium heparin (BD Vacutainer from Becton Dickinson and Company, Franklin Lakes, NY). Blood was added to sterile polystyrene round bottom 96-well tissue culture plates (Corning Costar) at 100 µl/well, omitting the outside wells. Media (RPMI Medium 1640 with L-glutamine, Invitrogen Corporation, Carlsbad, CA) was added to the blood in 90 µl aliquots for a total volume of 190 µl. Outside wells were filled with 200 µl of media. Blood was placed in a humidified 37°C incubator with 5% CO2 while compounds were prepared (nearly 60 minutes).
(§2) Compounds were prepared from 10 mM stock solutions in dimethylsulfoxide (DMSO, Sigma-Aldrich). […] Final DMSO and ethanol concentrations in the assay were 0.1 % and 1.5%. The samples were gently triturated twice to mix and replaced in the incubator. LPS stock (E. coli serotype 0111:B4, Sigma-Aldrich), stored in aliquots of 100 µg/ml in RPMI at -20°C, was diluted 1/50 in RPMI to make a working stock solution. After 60 minutes of incubation, 10 µl of the prepared LPS working stock was added to the blood to a final concentration of 100 ng/ml, omitting wells to be used as negative control. The samples were again gently triturated and the plates incubated overnight for 22 hours. Following incubation, the blood was centrifuged at 1500 x g for 5 minutes and the plasma removed to either freeze at -20°C or assay for cytokine release.
(§3) IL-1β, IFNγ,IL-6, and TNFα protein levels were measured using Meso Scale assay kits (Meso Scale Discovery, Gaithersburg, MD). Reagents were allowed to come to room temperature. Meso Scale plates were blocked with 30 µl of human plasma/serum assay diluent with gentle shaking for 60 minutes at room temperature. Plates were washed 3x with wash buffer (PBS, Invitrogen Corporation, with 0.05% Tween-20, Sigma-Aldrich). Calibrators for standard curves were prepared in human plasma/serum assay diluent as a 1/5 serial dilution to achieve final concentrations ranging from 50000 pg/ml to 3.2 pg/ml. Samples and calibrators were added at 20 µl/well, then incubated at room temperature with gentle shaking for 90 minutes. Plates were again washed 3 times with wash buffer. Detection antibody was diluted in human plasma/serum antibody diluent to 1 µg/ml and added to the plate at 20 µl/well. Plates were incubated as before for 60 minutes and washed again. Read Buffer T (4x) was diluted 1:1 with mqH2O to 2 times concentration and 150 µl added to each well. Plates were analyzed on the SECTOR Imager 6000 (Meso Scale Discovery) to generate raw signal values.
(§4) Individual values were compared to positive and negative controls (vehicle treated blood with LPS and vehicle treated blood without LPS, respectively) to generate % inhibition. Triplicate values were averaged for each donor. The values for two donors were averaged (only one donor was used for IL-1β) and graphed using 4-parameter fit curves in the GraFit 5.0.11 application.

[2] = mouse, in vivo
Description: Blood samples were obtained after three weeks of dosing for a steady-state pharmacokinetic (PK) analysis. To assess compound effects on LPS-induced TNFα, all mice received an intraperitoneal injection of LPS (Salmonella typhosa, L-7895; Sigma-Aldrich, St. Louis,) 2.5 hr after the last dose on day 28. Mice were sacrificed 90 minutes after LPS administration. Serum samples were quantified for osteocalcin and TNFα using the multiplex assays (Linco Research, Inc, St. Charles, MO; Luminex 100, Austin, TX). Samples were diluted 1:20 and the assay was run according to manufacturer's instructions. The osteocalcin standard was purchased separately (Biomedical Technologies Inc., Stoughton, MA). Mice were fasted for 4 hours before serum was collected for TNFα, and osteocalcin levels. For each experiment, outliers were detected by calculating the number of standard deviations from the mean of the group. If the value being examined was more than 2.5 standard deviations from the mean, it was excluded from the rest of the calculations.
Due to blood volume sampling limitations in mice, AUC(0-4 hr) values were used to make pharmacodynamic comparisons.

[3] = system: IL-6; test: Ex vivo LPS-stimulated human whole blood, IL-6 production; assay type: cell-based; details: mean values
Description: as §1, §2, §3, §4

Cc1ncccc1NC(=O)c1ccc2c(c1)CC[C@@H]1C[C@@](O)(C(F)(F)F)CC[C@@]21Cc1ccccc1 [Example 1, (4βS,7R,8αR)-4β-benzyl-7-hydroxy-N-(2-methylpyridin-3-yl)-7-(trifluoromethyl)-4β,5,6,7,8,8α,9,10-octahydrophenanthrene-2-carboxamide]
inhibition at 0.000457247 µM ([1]; 0.457247 nM): 23.4%
inhibition at 0.00137174 µM ([1]; 1.371742 nM): 22.4%
inhibition at 0.00411523 µM ([1]; 4.115226 nM): 11.2%
inhibition at 0.0123457 µM ([1]; 12.34568 nM): 21.5%
inhibition at 0.037037 µM ([1]; 37.03704 nM): 38.2%
inhibition at 0.111111 µM ([1]; 111.1111 nM): 39.7%
inhibition at 0.333333 µM ([1]; 333.3333 nM): 57.8%
inhibition at 1 µM ([1]; 1000 nM): 53.5%
AUC(0-4 hr) values as share of the AUC(0-24 hr) values [2]: more than 95%
inhibition at 0.000457247 µM ([3]; 0.457247 nM): -1.37%
inhibition at 0.00137174 µM ([3]; 1.371742 nM): 3.33%
inhibition at 0.00411523 µM ([3]; 4.115226 nM): -1.07%
inhibition at 0.0123457 µM ([3]; 12.34568 nM): -0.369%
inhibition at 0.037037 µM ([3]; 37.03704 nM): -0.828%
inhibition at 0.111111 µM ([3]; 111.1111 nM): 0.944%
inhibition at 0.333333 µM ([3]; 333.3333 nM): 2.15%
inhibition at 1 µM ([3]; 1000 nM): 8.05%
